Source: patent publication US8821875B2, “Pharmaceutical composition comprising antibodies against catalase and superoxide dismutase for tumor therapy” (Universitaetsklinikum Freiburg, priority 2011, dated 2014)

What was measured:
[1] = tested on: human Ewing's sarcoma line SKN-MC; experiment: Induction of apoptosis in Ewing's sarcoma line SKN-MC and inhibitor analysis; type: cell-based; conditions: 3 hours, inhibitor concentrations; for effect of inhibitor on anti-catalase-induced apoptosis: FIG. 13A; for effect of inhibitor on anti-SOD-induced apoptosis: FIG. 13B
Procedure: To 12 500 cells of the human neuroblastoma line SHEP and the human Ewing's sarcoma line SKN-MC in […] EMEM plus 5% FBS the given concentrations of anti-catalase and anti-SOD, respectively, were added. The percentages of apoptotic cells were determined after 5 hours (SHEP) and 5.5 hours (SKNMC), respectively.
To 10 000 cells of the human Ewing's sarcoma line SKN-MC in […] EMEM plus 5% FBS the given inhibitors and the concentrations of anti-catalase and anti-SOD, respectively, plotted in the abscissa were added. The percentages of apoptotic cells were determined after 3 hours.
Inhibitors: 50 mM taurine (HOCl scavenger); […] (peroxynitrite decomposition catalyst); 1000 U/ml catalase from ox liver; 40 mM MnTE2PyP(SOD mimetic); 90 U/ml MnSOD; 20 mM 3-Br-7-nitroindazole (nNOS specific inhibitor).

MKN-45 cells [2] = experiment: Inhibitor analysis of antibody-induced apoptosis in MKN-45 cells (ROS signaling); type: cell-based, human; conditions: for effect of inhibitor on apoptosis induced by monoclonal antibody against catalase: MKN-45, 2 hours, FIG. 8; for effect of inhibitor on anti-SOD-induced apoptosis: MKN-45, 6 hours, inhibitor concentrations of b79
Procedure: To 12 500 MKN-45 cells in […] RPMI 1640 medium, 10% FBS the given concentrations of the monoclonal antibodies against catalase as well as the mentioned inhibitors were added and the incubation was continued for 2 hours at 37° C., 5% CO2, before in duplicates the percentages of apoptotic cells were determined.
To 12 500 MKN-45 cells in […] RPMI 1640 medium, 10% FBS the given concentrations of the monoclonal antibodies against catalase and the given concentrations of the salen-manganese complex EUK-134 (chloro[[2,2′-[1,2-ethanediylbis[(nitrilo-κN)methylidyne]]bis[6-methoxyphenolato-κO]]]-manganese) (a catalase mimetic) were added and the incubation was continued for 2.5 hours at 37° C., 5% CO2. Subsequently, the percentage of apoptotic cells (duplicates) was determined according to the conventional apoptosis criteria membrane blebbing, nuclear condensation and/or nuclear fragmentation.
To 12 500 MKN-45 cells in […] RPMI 1640 medium, 10% FBS the given concentrations of monoclonal antibodies against SOD and the given inhibitors were added and the incubation was continued for 6 hours at 37° C., 5% CO2. Subsequently, the percentage of apoptotic cells (duplicates) was determined according to the conventional apoptosis criteria membrane blebbing, nuclear condensation, and/or nuclear fragmentation.
Inhibitors: […] FeTPPS (peroxynitrite decomposition catalyst); 75 U/ml MnSOD; 50 mM taurine (HOCl scavenger); 2.4 mM L-NAME (NOS inhibitor).

MKN-45 cells [3] = experiment: Synergistic effect of anti-catalase and anti-SOD in induction of apoptosis in MKN-45 cells; type: cell-based, human; conditions: 2 mM histidine, MKN-45, 3 hours, FIG. 18
Procedure: 12 500 MKN-45 cells in […] RPMI 1640 medium, 10% FBS received the given concentrations of anti-catalase. Control batches remained free of additional batches, batches for determination of the interaction additionally received 0.5 ng/ml or 2 ng/ml anti-SOD. The percentages of apoptotic cells were determined after 5.5 hours in duplicates.
This is unexpected and of great interest, since on its basis a considerable saving of antibodies could be achieved with the same effect. So, for example the combination of 2 ng/ml anti-SOD with 2 ng/ml anti-catalase results in 80 percent of the effect that can be achieved with 125 ng/ml of anti-catalase antibodies alone. 12 500 MKN-45 cells in […] RPMI 1640 medium, 10% FBS received the given concentrations of anti-catalase (control), anti-catalase plus 2 mM histidine (singlet oxygen scavenger), anti-catalase plus 1 ng/ml anti-SOD, anti-catalase/1 ng/ml anti-SOD/2 mM histidine. The percentages of apoptotic cells are determined after 3 hours in duplicates.
12 500 MKN-45 cells in […] RPMI 1640 medium, 10% FBS received the given concentrations of the Fab fragment AbD15562 directed against catalase. […] The percentages of apoptotic cells were determined after 3 hours in duplicates.

## O=[N+]([O-])c1cccc2c(Br)n[nH]c12 [3-Br-7-nitro-indazole, 3-bromo-7-nitroindazole]
[1]
  effect of inhibitor on anti-catalase-induced apoptosis: inhibition
  effect of inhibitor on anti-SOD-induced apoptosis: inhibition

## NCCc1ccc(S(=O)(=O)F)cc1 [AEBSF, 4-(2-aminoethyl)-benzenesulfonyl fluoride]
MKN-45 cells [2]; inhibitor concentrations
  effect of inhibitor on apoptosis induced by monoclonal antibody against catalase: inhibited

## COc1cccc(C=NCCN=Cc2cccc(OC)c2[O-])c1[O-].[Cl-].[Mn+3] [EUK-134]
MKN-45 cells [2]; 0.25 μM EUK-134, middle concentration range of the antibody, FIG. 9
  effect on anti-catalase-induced apoptosis: stronger inhibition
MKN-45 cells [2]; 0.25 mM EUK-134, lower concentration range of the antibodies, FIG. 9
  effect on anti-catalase-induced apoptosis: significant increase in apoptosis
MKN-45 cells [2]; 0.06 and 0.125 mM EUK-134, MKN-45, 2.5 hours, FIG. 9
  effect on concentration curve of anti-catalase-induced apoptosis: change the optimum curve into a plateau curve
MKN-45 cells [2]; two next higher concentrations of EUK-134, middle concentration range of the antibody, FIG. 9
  effect on anti-catalase-induced apoptosis: complete inhibition of the HOCl pathway

## Cl.O=S(=O)([O-])c1ccc(-c2c3nc(c(-c4ccc(S(=O)(=O)O)cc4)c4ccc([nH]4)c(-c4ccc(S(=O)(=O)O)cc4)c4nc(c(-c5ccc(S(=O)(=O)O)cc5)c5ccc2[nH]5)C=C4)C=C3)cc1.[Fe] [FeTPPS, 5-, 10-, 15-, 20-tetrakis(4-sulfonatophenyl)porphyrinato iron(III) chloride]
MKN-45 cells [2]; inhibitor concentrations
  effect of inhibitor on apoptosis induced by monoclonal antibody against catalase: inhibited in the lower concentration range of the antibody
MKN-45 cells [2]; FIG. 10
  effect of inhibitor on anti-SOD-induced apoptosis: inhibition
[1]
  effect of inhibitor on anti-catalase-induced apoptosis: inhibition
  effect of inhibitor on anti-SOD-induced apoptosis: inhibition

## COC(=O)[C@@H](N)CCCNC(=N)N[N+](=O)[O-].Cl [L-NAME, N-ω-nitro-L-arginine methylester hydrochloride]
MKN-45 cells [2]; inhibitor concentrations
  effect of inhibitor on apoptosis induced by monoclonal antibody against catalase: inhibited in the lower concentration range of the antibody
MKN-45 cells [2]; FIG. 10
  effect of inhibitor on anti-SOD-induced apoptosis: inhibition

## CC[n+]1ccccc1-c1c2nc(c(-c3cccc[n+]3CC)c3ccc([n-]3)c(-c3cccc[n+]3CC)c3nc(c(-c4cccc[n+]4CC)c4ccc1[n-]4)C=C3)C=C2.[Cl-].[Cl-].[Cl-].[Cl-].[Cl-].[Mn+3] [MnTE2PyP, Mn(III) meso-tetrakis(N-ethyl-2-pyridyl)porphyrin pentachloride]
[1]
  effect of inhibitor on anti-catalase-induced apoptosis: inhibition
  effect of inhibitor on anti-SOD-induced apoptosis: inhibition

## N[C@@H](Cc1c[nH]cn1)C(=O)O [histidine]
MKN-45 cells [3]
  blocking of the supra-optimum drop of the concentration-dependent curves: can be blocked
  blocking of the synergistic effect between anti-SOD and anti-catalase: cannot be blocked

## NCCS(=O)(=O)O [taurine]
MKN-45 cells [2]; MKN-45, 50 mM taurine, FIG. 10
  effect on the NO/peroxynitrite pathway in anti-SOD-induced apoptosis: enhancing effect
MKN-45 cells [2]; higher antibody concentration (HOCl pathway)
  effect of inhibitor on apoptosis induced by monoclonal antibody against catalase: inhibitory effect
MKN-45 cells [2]; FIG. 10
  effect of inhibitor on anti-SOD-induced apoptosis: lacking inhabitability
[1]
  effect of inhibitor on anti-catalase-induced apoptosis: lacking inhibitory effect
  effect of inhibitor on anti-SOD-induced apoptosis: lacking inhibitory effect

B1: exogenous catalase: 1000 U/ml catalase from ox liver, added exogenously (protein, UniProt P00432 2-527, looked up)
Catalase: ADNRDPASDQMKHWKEQRAAQKPDVLTTGGGNPVGDKLNSLTVGPRGPLLVQDVVFTDEMAHFDRERIPERVVHAKGAGAFGYFEVTHDITRYSKAKVFEHIGKRTPIAVRFSTVAGESGSADTVRDPRGFAVKFYTEDGNWDLVGNNTPIFFIRDALLFPSFIHSQKRNPQTHLKDPDMVWDFWSLRPESLHQVSFLFSDRGIPDGHRHMNGYGSHTFKLVNANGEAVYCKFHYKTDQGIKNLSVEDAARLAHEDPDYGLRDLFNAIATGNYPSWTLYIQVMTFSEAEIFPFNPFDLTKVWPHGDYPLIPVGKLVLNRNPVNYFAEVEQLAFDPSNMPPGIEPSPDKMLQGRLFAYPDTHRHRLGPNYLQIPVNCPYRARVANYQRDGPMCMMDNQGGAPNYYPNSFSAPEHQPSALEHRTHFSGDVQRFNSANDDNVTQVRTFYLKVLNEEQRKRLCENIAGHLKDAQLFIQKKAVKNFSDVHPEYGSRIQALLDKYNEEKPKNAVHTYVQHGSHLSAREKANL
[1]
  effect of inhibitor on anti-catalase-induced apoptosis: compensated
  effect of inhibitor on anti-SOD-induced apoptosis: compensated
